# Patent publication US11058680B2, “Combinations of opioid/TLR4 antagonists and acetaminophen for use in the treatment of emotional pain and insomnia” (Allodynic Threapeutics, LLC, priority 2016, dated 2021)
# “And” between values parts separate entries of the source, which are not always exact repeats. Identical values can stand only once.
# System: migraine attacks
# Experiment: Naltrexone/acetaminophen open-label pilot study, acute treatment of migraine: headache pain (4-point scale; relief score ≤1, pain-free score = 0), associated symptoms, additional meds
# Assay type: in vivo, human
# Protocol: Sixteen unique patients were enrolled in an open phase pilot study for the acute treatment of migraine attacks, insomnia, and emotional pain. Of the sixteen patients, eleven were evaluated for one migraine attack, one for two attacks, two for four attacks, one for six attacks, and one for fourteen attacks. A total of forty-one […] treatments were evaluated. Patients received a single dose of one of the following treatment options:
# The majority of the patients remained in the clinic for observation for 2 hours after dosing. They completed headache diary assessments immediately before and after dosing at time points: 7, 15, and 30 minutes; and 1, 1.5, 2, 3, 6, 12, 24, and 48 hours. Headache pain was assessed on a 4-point scale (0=none; 1=mild; 2=moderate; 3=severe). The assessment of photophobia, phonophobia, nausea, and neck/shoulder pain was assessed as present or absent. The assessment of emotional pain was recorded on a 4-point scale (0=none, 1=mild, 2=moderate, 3=severe). The assessment of difficulty sleeping or falling asleep (insomnia) was assessed on a 4-point scale (0=none, 1=mild, 2=moderate, 3=severe) at baseline, for the night before treatment and for the following nights at 24, and 48 hours. Patients recorded side effects severity at each time point. Patients recorded the time of the first rescue medication dose and all additional headache medications used within 48 hours. Patients were required to stay awake to record their assessments in the first 2 hours, sleeping was permitted thereafter. While asleep, assessments were completed according to patients' best estimation. For data analysis, it was assumed that a migraine attack is a unique patient. Patients were asked to specify (yes or no answer) to whether they experienced emotional pain symptoms such as: hurt feelings, sadness, fear, or anger. Patients who replied positively to having emotional pain were asked to specify the cause into one of the following options: relationship, work/school, money/debt, health, or loss/grief.
# [1] = 3 h, NTX/APAP 3.25 mg/325 mg, NTX 3.25 mg
# [2] = 3 h, NTX/APAP 5 mg/325 mg, NTX 5 mg
# [3] = 3 h, NTX/APAP […]325 mg, NTX 1.5 mg
# [4] = 3 h, naltrexone/acetaminophen 2.25 mg/325 mg (N=21), naltrexone 2.25 mg (N=9)
# [5] = 4 h, NTX/APAP 2.25 mg/325 mg, NTX 2.25 mg
# [6] = 4 h, NTX/APAP 3.25 mg/325 mg, NTX 3.25 mg
# [7] = 4 h, NTX/APAP 5 mg/325 mg, NTX 5 mg
# [8] = 4 h, NTX/APAP […]325 mg, NTX 1.5 mg
# [9] = 4 h, naltrexone/acetaminophen 2.25 mg/325 mg (N=21), naltrexone 2.25 mg (N=9)
# [10] = 6 h, NTX/APAP 2.25 mg/325 mg, NTX 2.25 mg
# [11] = 6 h, NTX/APAP 3.25 mg/325 mg, NTX 3.25 mg
# [12] = 6 h, NTX/APAP 5 mg/325 mg, NTX 5 mg
# [13] = 6 h, NTX/APAP […]325 mg, NTX 1.5 mg
# [14] = 6 h, naltrexone/acetaminophen 2.25 mg/325 mg (N=21), naltrexone 2.25 mg (N=9)
# [15] = 12 h, NTX/APAP 2.25 mg/325 mg, NTX 2.25 mg
structure (smiles),measurement,setting,value
O=C1CC[C@@]2(O)[C@H]3Cc4ccc(O)c5c4[C@@]2(CCN3CC2CC2)[C@H]1O5 [naltrexone],Photophobia-free,"3 h, NTX/APAP 2.25 mg/325 mg, NTX 2.25 mg",8 (88) n (%)
same,Additional meds taken,[1],0
same,Headache pain-free,[1],3 (100) n (%)
same,Headache pain-relief,[1],3 (100) n (%)
same,Most bothersome symptom free,[1],3 (100) n (%)
same,Nausea-free,[1],3 (100) n (%)
same,Neck/shoulder pain-free,[1],3 (100) n (%)
same,Phonophobia-free,[1],3 (100) n (%)
same,Photophobia-free,[1],3 (100) n (%)
same,Additional meds taken,[2],0
same,Headache pain-free,[2],1 (100) n (%)
same,Headache pain-relief,[2],1 (100) n (%)
same,Most bothersome symptom free,[2],1 (100) n (%)
same,Nausea-free,[2],1 (100) n (%)
same,Neck/shoulder pain-free,[2],1 (100) n (%)
same,Phonophobia-free,[2],1 (100) n (%)
same,Photophobia-free,[2],1 (100) n (%)
same,Additional meds taken,[3],0
same,Headache pain-free,[3],3 (100) n (%)
same,Headache pain-relief,[3],3 (100) n (%)
same,Most bothersome symptom free,[3],3 (100) n (%)
same,Nausea-free,[3],3 (100) n (%)
same,Neck/shoulder pain-free,[3],3 (100) n (%)
same,Phonophobia-free,[3],3 (100) n (%)
same,Photophobia-free,[3],3 (100) n (%)
same,Additional meds taken,"3 h, combined doses",0
same,Headache pain-free,"3 h, combined doses",14 (88) n (%)
same,Headache pain-relief,"3 h, combined doses",16 (100) n (%)
same,Most bothersome symptom free,"3 h, combined doses",16 (100) n (%)
same,Nausea-free,"3 h, combined doses",16 (100) n (%)
same,Neck/shoulder pain-free,"3 h, combined doses",16 (100) n (%)
same,Phonophobia-free,"3 h, combined doses",16 (100) n (%)
same,Photophobia-free,"3 h, combined doses",15 (94) n (%)
same,Headache pain-free,"3 h, naltrexone 1.5 mg (N=3)",100%
same,Headache pain-free,[4],77% and 100%
same,Headache pain-relief,[4],100%
same,Most bothersome symptom-free,[4],100%
same,Headache pain-free,"3 h, naltrexone/acetaminophen 3.25 mg/325 mg (N=3), naltrexone 3.25 mg (N=3)",100%
same,Additional meds taken,[5],0 (0)
same,Headache pain-free,[5],6 (66) n (%)
same,Headache pain-relief,[5],8 (88) n (%)
same,Most bothersome symptom-free,[5],8 (88) n (%)
same,Nausea-free,[5],8 (88) n (%)
same,Neck/shoulder pain-free,[5],9 (100) n (%)
same,Phonophobia-free,[5],8 (88) n (%)
same,Photophobia-free,[5],7 (77) n (%)
same,Additional meds taken,[6],0
same,Headache pain-free,[6],3 (100) n (%)
same,Headache pain-relief,[6],3 (100) n (%)
same,Most bothersome symptom-free,[6],3 (100) n (%)
same,Nausea-free,[6],3 (100) n (%)
same,Neck/shoulder pain-free,[6],3 (100) n (%)
same,Phonophobia-free,[6],3 (100) n (%)
same,Photophobia-free,[6],3 (100) n (%)
same,Additional meds taken,[7],0
same,Headache pain-free,[7],1 (100) n (%)
same,Headache pain-relief,[7],1 (100) n (%)
same,Most bothersome symptom-free,[7],1 (100) n (%)
same,Nausea-free,[7],1 (100) n (%)
same,Neck/shoulder pain-free,[7],1 (100) n (%)
same,Phonophobia-free,[7],1 (100) n (%)
same,Photophobia-free,[7],1 (100) n (%)
same,Additional meds taken,[8],0
same,Headache pain-free,[8],3 (100) n (%)
same,Headache pain-relief,[8],3 (100) n (%)
same,Most bothersome symptom-free,[8],3 (100) n (%)
same,Nausea-free,[8],3 (100) n (%)
same,Neck/shoulder pain-free,[8],3 (100) n (%)
same,Phonophobia-free,[8],3 (100) n (%)
same,Photophobia-free,[8],3 (100) n (%)
same,Additional meds taken,"4 h, combined doses",0
same,Headache pain-free,"4 h, combined doses",13 (81) n (%)
same,Headache pain-relief,"4 h, combined doses",15 (94) n (%)
same,Most bothersome symptom-free,"4 h, combined doses",15 (94) n (%)
same,Nausea-free,"4 h, combined doses",15 (94) n (%)
same,Neck/shoulder pain-free,"4 h, combined doses",16 (100) n (%)
same,Phonophobia-free,"4 h, combined doses",15 (94) n (%)
same,Photophobia-free,"4 h, combined doses",14 (88) n (%)
same,Headache pain-free,"4 h, naltrexone 1.5 mg (N=3)",100%
same,Headache pain-free,[9],66% and 100%
same,Headache pain-relief,[9],88%
same,Most bothersome symptom-free,[9],88%
same,Headache pain-free,"4 h, naltrexone/acetaminophen 3.25 mg/325 mg (N=3), naltrexone 3.25 mg (N=3)",100%
same,Additional meds taken,[10],0 (0)
same,Headache pain-free,[10],7 (77) n (%)
same,Headache pain-relief,[10],9 (100) n (%)
same,Most bothersome symptom-free,[10],9 (100) n (%)
same,Nausea-free,[10],9 (100) n (%)
same,Neck/shoulder pain-free,[10],9 (100) n (%)
same,Phonophobia-free,[10],9 (100) n (%)
same,Photophobia-free,[10],8 (88) n (%)
same,Additional meds taken,[11],0
same,Headache pain-free,[11],3 (100) n (%)
same,Headache pain-relief,[11],3 (100) n (%)
same,Most bothersome symptom-free,[11],3 (100) n (%)
same,Nausea-free,[11],3 (100) n (%)
same,Neck/shoulder pain-free,[11],3 (100) n (%)
same,Phonophobia-free,[11],3 (100) n (%)
same,Photophobia-free,[11],3 (100) n (%)
same,Additional meds taken,[12],0
same,Headache pain-free,[12],1 (100) n (%)
same,Headache pain-relief,[12],1 (100) n (%)
same,Most bothersome symptom-free,[12],1 (100) n (%)
same,Nausea-free,[12],1 (100) n (%)
same,Neck/shoulder pain-free,[12],1 (100) n (%)
same,Phonophobia-free,[12],1 (100) n (%)
same,Photophobia-free,[12],1 (100) n (%)
same,Additional meds taken,[13],0
same,Headache pain-free,[13],3 (100) n (%)
same,Headache pain-relief,[13],3 (100) n (%)
same,Most bothersome symptom-free,[13],3 (100) n (%)
same,Nausea-free,[13],3 (100) n (%)
same,Neck/shoulder pain-free,[13],3 (100) n (%)
same,Phonophobia-free,[13],3 (100) n (%)
same,Photophobia-free,[13],3 (100) n (%)
same,Additional meds taken,"6 h, combined doses",0
same,Headache pain-free,"6 h, combined doses",14 (88) n (%)
same,Headache pain-relief,"6 h, combined doses",16 (100) n (%)
same,Most bothersome symptom-free,"6 h, combined doses",16 (100) n (%)
same,Nausea-free,"6 h, combined doses",16 (100) n (%)
same,Neck/shoulder pain-free,"6 h, combined doses",16 (100) n (%)
same,Phonophobia-free,"6 h, combined doses",16 (100) n (%)
same,Photophobia-free,"6 h, combined doses",15 (94) n (%)
same,Headache pain-free,"6 h, naltrexone 1.5 mg (N=3)",100%
same,Headache pain-free,[14],77% and 100%
same,Headache pain-relief,[14],100%
same,Most bothersome symptom-free,[14],100%
same,Headache pain-free,"6 h, naltrexone/acetaminophen 3.25 mg/325 mg (N=3), naltrexone 3.25 mg (N=3)",100%
same,Additional meds taken,[15],0 (0)
same,Headache pain-free,[15],7 (77) n (%)
same,Headache pain-relief,[15],9 (100) n (%)
same,Most bothersome symptom-free,[15],9 (100) n (%)
